# Source: patent US6613718B2, “Aryl ether derivatives and processes for their preparation and herbicidal and desiccant compositions containing them” (Ishihara Sangyo Kaisha, Ltd., priority 2001, dated 2003)
# Assays:
# [1] = Pre-emerge herbicidal activity of mixtures with Compound 1-1 and other herbicides, observed 64 days after treatment; type: in vivo; conditions: 1-1 alone 50 g ai/ha
# Experimental: (§1) The data in Table XI and Table XII show the results when compounds 1-1 and 2-1 were tested as mixtures with other herbicides. Observations in Table XI were made 64 days after treatment while those in Table XII were made 56 days after treatment.
# [2] = Pre-emerge herbicidal activity of mixtures with Compound 2-1 and other herbicides, observed 56 days after treatment; type: in vivo; conditions: 2-1 alone 200 g ai/ha
# Experimental: as §1
Structure (SMILES),ABUTH pre-emerge herbicidal activity ([1]; ABUTH),AMARE pre-emerge herbicidal activity ([1]; AMARE),AMBEL pre-emerge herbicidal activity ([1]; AMBEL),CHEAL pre-emerge herbicidal activity ([1]; CHEAL),"CORN damage, pre-emerge ([1]; CORN)",SETVI pre-emerge herbicidal activity ([1]; SETVI),ABUTH pre-emerge herbicidal activity ([2]; ABUTH),AMARE pre-emerge herbicidal activity ([2]; AMARE),AMBEL pre-emerge herbicidal activity ([2]; AMBEL),CHEAL pre-emerge herbicidal activity ([2]; CHEAL),"CORN damage, pre-emerge ([2]; CORN)",SETVI pre-emerge herbicidal activity ([2]; SETVI)
Cn1c(C(F)(F)F)cc(=O)n(-c2cc(Oc3ncccn3)c(Cl)cc2F)c1=S [1-1.],87,93,92,95,0,90,,,,,,
Cn1c(=S)n(C)c(=O)n(-c2cc(Oc3ncccn3)c(Cl)cc2F)c1=O [2-1.],,,,,,,95,93,95,95,0,90
